Source: patent US12371454B2, “Cyclic peptide compound having Kras inhibitory action” (priority 2019, dated 2025)
Starred links: 1 amine or outer side, 2 acyl side, 3 side chain; linkers in the order of their positions; H or OH if unused. Positions of bridges follow the written chain, without caps; N, C: chain ends. Non-standard residues stand in square brackets, D forms with d. Residues, ends and D or L forms follow the SMILES beside them. *: point of attachment. hPhe(3-Cl-4-CF3) = N[C@@H](CCc1ccc(C(F)(F)F)c(Cl)c1)C(=O)O; NMeDab(N,N-(CH2CF2CH2)) = CN[C@@H](CCN1CC(F)(F)C1)C(=O)O; hPhe(3-F,4-CF3) = N[C@@H](CCc1ccc(C(F)(F)F)c(F)c1)C(=O)O; hPhe(4-CF3) = N[C@@H](CCc1ccc(C(F)(F)F)cc1)C(=O)O; NMePhe(4-Cl) = CN[C@@H](Cc1ccc(Cl)cc1)C(=O)O; X4 = O=C([C@H](Cc1cc(F)cc(Cl)c1)N[*:1])[*:2]; NMeNle(6-CHF2) = CN[C@@H](CCCCC(F)F)C(=O)O; NMedβ3hAla = C[C@H](CC(=O)[*:2])N(C)[*:1]; hPhe(4-F) = N[C@@H](CCc1ccc(F)cc1)C(=O)O; NMe4Pal = CN[C@@H](Cc1ccncc1)C(=O)O; NMeCha = CN[C@@H](CC1CCCCC1)C(=O)O; NMeChg = CN[C@H](C(=O)O)C1CCCCC1; NMeF = CN[C@@H](Cc1ccccc1)C(=O)O; NMeD = CN[C@@H](CC(=O)O)C(=O)O; NMeL = CN[C@@H](CC(C)C)C(=O)O; NMeV = CN[C@H](C(=O)O)C(C)C; d(β3hA) = C[C@@H](N)CC(=O)O; Pip = O=C(O)[C@@H]1CCCCN1; NMeA = CN[C@@H](C)C(=O)O; NMeAib = CNC(C)(C)C(=O)O; Piperidide = C1CCN(*)CC1; Pyrrolidide = C1CCN(*)C1; Ac5c = NC1(C(=O)O)CCCC1; Aze = O=C(O)[C@@H]1CCN1; Aib = CC(C)(N)C(=O)O; Sar = CNCC(=O)O

Biological target: T1, Kras and SOS1 (biotin-tagged human Kras loaded with GDP, His-tagged human SOS1) (Homo sapiens, UniProt P01116, G12D)
T1 construct: made in house; host or cells: E. coli (stated for Kras only)
T1 sequence (P01116 1-188 isoform P01116-2 G12D): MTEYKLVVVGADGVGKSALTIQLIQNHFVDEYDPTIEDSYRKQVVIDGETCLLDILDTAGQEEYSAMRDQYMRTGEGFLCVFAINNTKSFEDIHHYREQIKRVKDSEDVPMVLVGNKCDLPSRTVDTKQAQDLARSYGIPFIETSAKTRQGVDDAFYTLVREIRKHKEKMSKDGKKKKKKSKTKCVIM
Assay: Protein-protein interaction inhibition between Kras and SOS1 (KrasGl2D-SOS PPI) using AlphaScreen
Assay type: binding
Conditions: AlphaScreen; biotin-tagged human Kras loaded with GDP, His-tagged human SOS1; read-out: KRAS G12D-SOS PPI IC50
How it was run: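 AlphaScreen format: Ni donor beads capture His-SOS1, streptavidin acceptor beads capture biotinylated Kras (E. coli-expressed, GDP-loaded post-purification). Excite 680 nm, read 520-620 nm.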

SMILES | IC50 [nM]
CC[C@H](C)[C@@H]1NC(=O)[C@H](C(C)C)N(C)C(=O)C[C@@H](C)NC(=O)[C@H](CC(C)C)N(C)C(=O)C2(CCCC2)NC(=O)[C@H](CC(C)C)N(C)C(=O)[C@H](CCc2ccc(C(F)(F)F)cc2)NC(=O)CN(C)C(=O)[C@H](Cc2ccc(Cl)cc2)N(C)C(=O)[C@@H]2CCN2C(=O)CN(C)C1=O [Compound 645] (cyclo([Ac5c][NMeL][d(β3hA)][NMeV]I[Sar][Aze][NMePhe(4-Cl)][Sar][hPhe(4-CF3)][NMeL])) | 58
CC[C@H](C)[C@@H]1NC(=O)[C@H](C)N(C)C(=O)C[C@@H](C(=O)N2CCCC2)NC(=O)[C@H](CC(C)C)N(C)C(=O)[C@H](Cc2ccccc2)N(C)C(=O)[C@H](CC(C)C)NC(=O)[C@H](CCc2ccc(F)cc2)NC(=O)CN(C)C(=O)[C@H](Cc2ccc(Cl)cc2)N(C)C(=O)CN(C)C(=O)CN(C)C1=O [Compound 646] ([NMeA]I[Sar][Sar][NMePhe(4-Cl)][Sar][hPhe(4-F)]L[NMeF][NMeL]D-Pyrrolidide; lactam N-11) | 120
CC[C@H](C)[C@@H]1NC(=O)[C@@H]2CCCCN2C(=O)C[C@@H](C)N(C)C(=O)[C@H](CC(C)C)NC(=O)C(C)(C)N(C)C(=O)[C@H](CC(C)C)NC(=O)[C@H](CCc2ccc(C(F)(F)F)c(F)c2)NC(=O)CN(C)C(=O)[C@H](CC2CCCCC2)N(C)C(=O)CN(C)C(=O)CN(C)C1=O [Compound 649] (cyclo(I[Sar][Sar][NMeCha][Sar][hPhe(3-F,4-CF3)]L[NMeAib]L[NMedβ3hAla][Pip])) | 360
CC[C@H](C)[C@@H]1NC(=O)[C@H](CC(C)C)N(C)C(=O)C[C@@H](C(=O)N2CCCCC2)N(C)C(=O)[C@H](CCCCC(F)F)N(C)C(=O)C2(CCCC2)NC(=O)[C@@H]2CCCN2C(=O)[C@H](CCc2ccc(C(F)(F)F)c(Cl)c2)NC(=O)CN(C)C(=O)[C@H](CC2CCCCC2)N(C)C(=O)CN(C)C(=O)CN(C)C1=O [Compound 653] ([NMeL]I[Sar][Sar][NMeCha][Sar][hPhe(3-Cl-4-CF3)]P[Ac5c][NMeNle(6-CHF2)][NMeD]-Piperidide; lactam N-11) | 44
CC[C@H](C)[C@@H]1NC(=O)[C@H](C)N(C)C(=O)C[C@@H](C)NC(=O)[C@H](CC(C)C)N(C)C(=O)[C@H](Cc2ccccc2)N(C)C(=O)[C@@H]2CCN2C(=O)[C@H](CCc2ccc(C(F)(F)F)cc2)NC(=O)CN(C)C(=O)[C@H](Cc2ccc(Cl)cc2)N(C)C(=O)CN(C)C(=O)CN(C)C1=O [Compound 654] (cyclo([Aze][NMeF][NMeL][d(β3hA)][NMeA]I[Sar][Sar][NMePhe(4-Cl)][Sar][hPhe(4-CF3)])) | 110
CC[C@H](C)[C@@H]1NC(=O)[C@H](C)N(C)C(=O)C[C@@H](C(=O)N2CCCCC2)N(C)C(=O)[C@H](C(C)C)N(C)C(=O)[C@H](COC)NC(=O)[C@H](CCN2CC(F)(F)C2)N(C)C(=O)[C@H](CCc2ccc(C(F)(F)F)c(Cl)c2)NC(=O)CN(C)C(=O)[C@H](CC2CCCCC2)N(C)C(=O)CN(C)C(=O)CN(C)C1=O [Compound 655] ([NMeA]I[Sar][Sar][NMeCha][Sar][hPhe(3-Cl-4-CF3)][NMeDab(N,N-(CH2CF2CH2))]S(Me)[NMeV][NMeD]-Piperidide; lactam N-11) | 4.9
CC[C@H](C)[C@@H]1NC(=O)[C@H](CC(C)C)N(C)C(=O)C[C@@H](C(=O)N2CCCCC2)N(C)C(=O)[C@H](C2CCCCC2)N(C)C(=O)C2(CCCC2)NC(=O)[C@H](Cc2ccncc2)N(C)C(=O)[C@H](CCc2ccc(C(F)(F)F)c(Cl)c2)NC(=O)CN(C)C(=O)[C@H](CC2CCCCC2)N(C)C(=O)[C@@H]2CCN2C(=O)[C@H](C)N(C)C1=O [Compound 656] ([NMeL]I[NMeA][Aze][NMeCha][Sar][hPhe(3-Cl-4-CF3)][NMe4Pal][Ac5c][NMeChg][NMeD]-Piperidide; lactam N-11) | 17
CC[C@H](C)[C@@H]1NC(=O)[C@H](C)N(C)C(=O)C[C@@H](C(=O)N2CCCC2)NC(=O)[C@H](CC(C)C)N(C)C(=O)[C@H](Cc2ccccc2)N(C)C(=O)[C@H](CC(C)C)NC(=O)[C@H](Cc2cc(F)cc(Cl)c2)NC(=O)CN(C)C(=O)[C@H](Cc2ccc(Cl)cc2)N(C)C(=O)CN(C)C(=O)CN(C)C1=O [Compound 657] ([NMeA]I[Sar][Sar][NMePhe(4-Cl)][Sar][X4]L[NMeF][NMeL]D-Pyrrolidide; lactam N-11) | 310
CC[C@H](C)[C@@H]1NC(=O)[C@H](C)N(C)C(=O)C[C@@H](C)NC(=O)[C@H](CC(C)C)N(C)C(=O)C(C)(C)NC(=O)[C@@H]2CCCN2C(=O)[C@H](CCc2ccc(C(F)(F)F)cc2)NC(=O)CN(C)C(=O)[C@H](Cc2ccc(Cl)cc2)N(C)C(=O)CN(C)C(=O)CN(C)C1=O [Compound 664] (cyclo([Aib][NMeL][d(β3hA)][NMeA]I[Sar][Sar][NMePhe(4-Cl)][Sar][hPhe(4-CF3)]P)) | 25
